Assay results reported in patent US7282339B2, “Competitive immunoassay” (Invitrogen Corporation, priority 2003, dated 2007).
Values joined by “and” are separate entries in the source; they are usually repeats but may differ in a detail not shown here. Identical values can stand only once.

How the values were obtained:
[1] = system: Compound 15+P-Tyr-100 complex; assay: Selectivity of displacement of Compound 15 by peptides or proteins (Example 16); type: binding, mouse; settings: peptides or proteins serially diluted from 80 μM
Description: A 5 mM solution of Compound 15 was prepared in water. In kinase buffer (50 mM Tris, pH 7.5, 10 mM MgCl2, 1 mM EGTA, 0.01% Brij 35, 2 mM DTT, 100 μM ATP) 80 μM solutions of six different peptides or proteins were made: 1) phospho-pp60 c-src peptide (521-533) (TSTEPQY*QPGENL) (Bachem, catalog # H-3258); 2) non-phospho-pp60 c-src peptide (521-533) (TSTEPQYQPGENL) (Bachem, catalog # H-3256); 3) phospho-DSIP peptide (WAGGDAS*GE) (SynPep, catalog # 3920); 4) phospho-RRA(pT)VA peptide (RRAT*VA) (Sigma, catalog V248A); 5) beta-casein (Sigma, catalog # C6905); 6) bovine serum albumin (Sigma, catalog # A7284). These peptides or proteins were serially diluted 2-fold in 20 μl in a 0.025% Mowiol-blocked 384-well black Packard OptiPlate. 20 μl of a 2× mix of 50 nM of Compound 15+100 nM P-Tyr-100 (Cell Signaling Technology, catalog # 9411) complex in kinase buffer was added to the wells. The fluorescence intensity was measured on an EnVision microplate reader (Perkin Elmer), PMT 1 gain 155, PMT 2 gain 183, excitation light 60%, 100 flashes at 9 mM height.

p-Tyr-100 antibody = assay: Screening of phosphotyrosine ligand-binding antibodies with Compound 16 (Example 20); set-up: species or system mouse; settings: compared with p-Tyr-69, p-Tyr-20 and 4G10 antibodies; 50 nM Compound 16
Description: A 4 mM stock of Compound 16 was made in 16% (v/v) DMSO. Three different antibodies were diluted to 1 μM in 50 mM MOPS, pH 7.2:1) p-Tyr-100 antibody (Cell Signaling Technology, catalog # 9411); 2) p-Tyr-69 antibody (BD Transduction Labs, catalog # 610430); 3) p-Tyr-20 antibody (BD Transduction Labs, catalog # 610000). A fourth antibody, the 4G10 antibody (Upstate Biotechnology, catalog # 05-321), was diluted to 400 nM in MOPS buffer. The antibodies were serially diluted in a microplate in 25 μl 50 mM MOPS, pH 7.2, buffer. 25 μl 100 nM Compound 16 in MOPS buffer was added to all wells. The fluorescence intensity was measured on an EnVision microplate reader (Perkin Elmer), PMT 1 gain 155, PMT 2 gain 187, excitation light 53%, 100 flashes at 9 mM height.

[2] = system: P-Tyr-100 mouse monoclonal anti-phosphotyrosine antibody; assay: Efficacy of secondary antibody labels as FRET acceptors (Example 27); type: binding
Description: Solutions containing (A) 100 nM phosphotyramide ligand analog, (B) 100 nM phosphotyramide ligand analog complexed with 100 nM P-Tyr-100 mouse monoclonal anti-phosphotyrosine antibody and (C) 100 nM phosphotyramide ligand analog complexed with 100 nM P-Tyr-100 anti-phosphotyrosine antibody and 600 nM Fab fragments of goat anti-mouse IgG were prepared in 50 mM Tris-HC1, pH 7.5. Corresponding sets for solutions were prepared for Fab fragments labeled with three different dyes and an unlabeled control. Fluorescence intensities at 510 nm (excitation at 450 nm) were measured on a Hitachi F-4500 spectrofluorometer and were expressed as percentages of the intensity of the free phosphotyramide ligand sample (Table 5). […] Addition of a labeled secondary antibody produced a further decrease in intensity only in the case of the Alexa Fluor 555 labeling dye, which has spectral characteristics that are consistent with efficient fluorescence resonance energy transfer from the BODIPY FL phosphotyramide ligand (Compound 16).

[3] = molecular target: P-Tyr-100 anti-phosphotyrosine monoclonal antibody; assay: Determination of dissociation constants for antibody-ligand complexes (Example 23); type: binding, mouse; settings: 1 nM test compound, P-Tyr-100 0.02 to 40 nM; fluorescence intensity, single-site saturation fit; read-out: dissociation constant
Description: Solutions of Compound 15 and Compound 34 (2 nM) were prepared in 50 mM Tris-HCl pH 7.5, 10 mM MgCl2, 0.01% Brij-35, 500 μM ATP, 2 mM DTT, 1 mM EGTA, 0.5 mg/ml bovine serum albumin. 25 μl aliquots of these solutions were pipetted into the wells of a 384-well microplate. 25 μl aliquots of a serially-diluted 0.08 μM stock solution of P-Tyr-100 anti-phosphotyrosine monoclonal antibody (Cell Signaling Technology, Beverly, Mass.) were added to the wells. The resulting samples contained 1 nM test compound and antibody concentrations ranging from 0.02 to 40 nM. Fluorescence intensities of triplicate samples at each antibody concentration were measured on an EnVision microplate reader (PerkinElmer Life Sciences) using excitation/emission filter settings of 480/535 nm. The mean (n=3) fluorescence intensities were plotted against the corresponding antibody concentrations. Dissociation constants were determined from hyperbolic single-site saturation binding functions fitted to the experimental data by nonlinear regression analysis (SigmaPlot, Jandel Scientific Inc). The dissociation constants obtained were 2.0 nM for Compound 15+P-Tyr-100 and 1.7 nM for Compound 34+P-Tyr-100.

[4] = system: P-Tyr-100 monoclonal anti-phosphotyrosine antibody; assay: Z′ factor of displacement assay with Compound 34 (Example 14); type: binding, mouse; settings: Compound 34+P-Tyr-100 complex, phospho-pp60 c-src peptide
Description: A 2 mM solution of Compound 34 was prepared in water. Two working stocks were prepared in kinase buffer (50 mM Tris, pH 7.5, 10 mM MgCl2, 1 mM EGTA, 0.01% Brij 35, 2 mM DTT, 100 μM ATP): 1) 50 nM of Compound 34+100 nM P-Tyr-100 monoclonal anti-phosphotyrosine antibody (Cell Signaling Technology, catalog # 9411); 2) 100 μM phospho-pp60 c-src peptide (521-533) (TSTEPQY*QPGENL) from Bachem, catalog # H-3258. In two 384-well microplates, […] of the 50 nM Compound 34+100 nM P-Tyr-100 complex was added to 96 wells in each plate. To the same wells, 25 μl of either kinase buffer alone (48 wells each plate) or the 100 μM phospho-pp60 c-src peptide in kinase buffer (48 wells each plate) was added. The fluorescence was measured in a Victor^2 microplate reader (Wallac), 1 read/well for 0.2 sec each at 30000V gain, excitation 485+/−17.5 nm, emission 535+/−12.5 nm.
The Z′ statistic was calculated using equation 5 from Zhang, J.-H., Chung, T., D., Y., and Oldenburg, K. R. (1999) A simple statistical parameter for use in evaluation and validation of high throughput screening assays. J. Biomol. Screen. 4, 67-73. […] In other words, there is a 4-fold increase in fluorescent signal after the ligand analog is displaced by the phosphorylated peptide. See, FIG. 6.

[5] = system: P-Tyr-100 antiphosphotyrosine monoclonal antibody; assay: Ligand analog screening: fluorescence intensity and polarization vs P-Tyr-100 antibody concentration (Examples 22, 24); type: binding, mouse; settings: ratio of fluorescence intensity at lowest (Fmax) to highest (Fmin) antibody concentration; 50 nM ligand analog, P-Tyr-100 0.8 to 500 nM; ex/em 480/535 nm
Description: Solutions of test compounds (100 nM) were prepared were prepared in 50 mM Tris-HCl pH 7.5, 10 mM MgCl2, 0.01% Brij-35, 500 μM ATP, 2 mM DTT, 1 mM EGTA. 20 μl aliquots of these solutions were pipetted into the wells of a 384-well microplate. 20 μl aliquots of a serially-diluted […] stock solution of P-Tyr-100 antiphosphotyrosine monoclonal antibody (Cell Signaling Technology, Beverly, Mass.) were added to the wells. The resulting samples contained 50 nM of each ligand analog (Compounds 15, 7, 8, 9, 18 and 19) and antibody concentrations ranging from 0.8 to 500 nM. Fluorescence polarization and intensity of the samples was measured on an EnVision microplate reader (PerkinElmer Life Sciences) using excitation/emission filter settings of 480/535 nm. Increasing fluorescence polarization as a function of antibody concentration (A) provides confirmation of ligand analog binding to the antibody. […] Phosphotyrosine peptide, target ligand, (phospho-pp60 c-src (521-533); TSTEPQY*QPGENL, Bachem California, Inc. Torrance, Calif.) was then added to all samples at a concentration of 10 μM and the fluorescence intensity and polarization measurements were repeated (C, D). […] Displacement of the ligand analogs from antibody is confirmed by depolarization of fluorescence (D compared to A). […] See, FIG. 14.
Compound 12 and Compound 13 were assessed for efficacy using the methods described in Example 22. […] Samples containing 100 nM of Compound 13 and additional components identified in the figure legend were prepared in 50 mM Tris-HCl pH 7.5, 10 mM MgCl2, 0.01% Brij-35, 100 μM ATP, 2 mM DTT, 1 mM EGTA. 100 μL volumes of these samples were transferred to microcuvettes. The fluorescence emission spectrum was recorded for each sample using a Hitachi F-4500 spectrofluorometer (excitation wavelength=520 nm). See, FIG. 15

[6] = system: P-Tyr-100 monoclonal anti-phosphotyrosine antibody; assay: Competitive immunoassay with Compound 15, anti-phosphotyrosine antibody and phosphotyrosine peptide (Example 12); type: binding, mouse; settings: 100 nM ligand analog + 100 nM P-Tyr-100, kinase buffer
Description: A 5 mM solution of Compound 15 was prepared in water. In 150 μl kinase buffer (50 mM Tris, pH 7.5, 10 mM MgCl2, 1 mM EGTA, 0.01% Brij 35, 2 mM DTT, 100 μM ATP) several separate reactions were made containing: 1) 100 nM Compound 15; 2) 100 nM […]+100 nM P-Tyr-100 monoclonal anti-phosphotyrosine antibody (Cell Signaling Technology, catalog # 9411); 3) 100 nM Compound 15+100 nM P-Tyr-100+10 μM phospho-pp60 c-src peptide (521-533) (TSTEPQY*QPGENL) from Bachem, catalog # H-3258; 4) 100 nM Compound 15+100 nM P-Tyr-100+10 μM phospho-abl peptide (EAIY*AAPFAKKK), custom peptide MPIJ6 from Anaspec. The resulting fluorescence was measured using a Hitachi F-4500 cuvette fluorimeter using 100 μl cuvettes. The F-4500 was set on ‘emission scan’, with an excitation at 470 nm, slit width of 5 nm, emission scan from 485-650 nm, slit width 5 nm, and the PMT gain was at 700 V.

[7] = system: P-Tyr-100 monoclonal anti-phosphotyrosine antibody; assay: Rapid displacement of the ligand analog by the target ligand, off rate (Example 13); type: binding, mouse; settings: 100 nM Compound 15+100 nM P-Tyr-100; 10 μM phospho-pp60 c-src peptide added
Description: A 5 mM solution of Compound 15 was prepared in water. In 150 μl kinase buffer (50 mM Tris, pH 7.5, 10 mM MgCl2, 1 mM EGTA, 0.01% Brij 35, 2 mM DTT, 100 μM ATP) a reaction was made containing 100 nM Compound 15+100 nM P-Tyr-100 monoclonal anti-phosphotyrosine antibody (Cell Signaling Technology, catalog # 9411). The fluorescence was measured over time using a Hitachi F-4500 fluorimeter (Ex 470, Em 510, slit width 5 nm for both wavelengths, PMT gain 700 V). After 15 seconds, 10 μM phospho-pp60 c-src peptide (521-533) (TSTEPQY*QPGENL) from Bachem, catalog # H-3258 was added.

TSTEPQY*QPGENL [phospho-pp60 c-src peptide]
displacement of the ligand analog (Compound 15) [1]: significantly displaces

BODIPY FL phosphotyramide [Compound 16]
affinity of antibody for the ligand analog (p-Tyr-100 antibody): highest affinity
fluorescence intensity at 510 nm, Sample C ([2]; 100 nM Compound 16 + 100 nM P-Tyr-100 + 600 nM Fab labeled Alexa Fluor 555 (DOS 3.8), percentages of Sample A): 36 percentages
fluorescence intensity at 510 nm, Sample C ([2]; 100 nM Compound 16 + 100 nM P-Tyr-100 + 600 nM Fab labeled Alexa Fluor 594 (DOS 2.5), percentages of Sample A): 48 percentages
fluorescence intensity at 510 nm, Sample C ([2]; 100 nM Compound 16 + 100 nM P-Tyr-100 + 600 nM Fab labeled Alexa Fluor 647 (DOS 2.8), percentages of Sample A): 47 percentages
fluorescence intensity at 510 nm, Sample C ([2]; 100 nM Compound 16 + 100 nM P-Tyr-100 + 600 nM Fab, Unlabeled, percentages of Sample A): 51 percentages
fluorescence intensity at 510 nm, Sample B ([2]; 100 nM Compound 16 + 100 nM P-Tyr-100, percentages of Sample A, excitation 450 nm): 49 percentages and 51 percentages and 53 percentages
fluorescence intensity at 510 nm, Sample A ([2]; 100 nM Compound 16 alone, reference set to 100, excitation 450 nm): 100 percentages
decrease of fluorescence intensity on binding to the P-Tyr-100 antibody ([2]; 100 nM ligand analog + 100 nM P-Tyr-100): approximately 50%

NC(=O)C(Cc1ccc(OP(=O)(O)O)cc1)NC(=O)c1ccc(C(=O)O)c(-c2c3cc(F)c(=O)cc-3oc3cc(O)c(F)cc23)c1 (stereo not drawn) [Compound 34]
Kd [3]: 1.7 nM
increase in fluorescent signal after the ligand analog is displaced by the phosphorylated peptide [4]: 4 fold

O=C(NCCc1ccc(OP(=O)(O)O)cc1)c1ccc(C(=O)O)c(-c2c3cc(F)c(=O)cc-3oc3cc(O)c(F)cc23)c1 [Compound 15, Oregon Green 488 6-phosphotyramide]
Fmax/Fmin [5]: 5.4
Kd [3]: 2 nM
quenching of the reporter molecule on addition of P-Tyr-100 antibody [6]: significantly quenched
off rate [7]: 0.14 s⁻¹
